Measurements from patent US20180037568A1, “MODULATORS OF METHYL MODIFYING ENZYMES, COMPOSITIONS AND USES THEREOF” (Constellation Pharmaceuticals, Inc., priority 2015, published 2018).

What was measured:
EZH2 = EZH2 (Homo sapiens, UniProt Q15910); assay: EZH2 nuc BSA Brij 1.5 (IC50): rPRC2, biotinylated oligonucleosome substrate, 3H SAM FlashPlate; type: biochemical; conditions: read-out: EZH2 nuc BSA Brij 1.5 (IC50); 2 nM EZH2, 0.2 μM biotinylated oligonucleosomes, 0.2 μM 3H SAM, 3.6 μM H3K27me3 peptide
Method in brief: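 rPRC2 (2 nM EZH2) with 0.2 μM biotinylated oligonucleosomes, 0.2 μM 3H-SAM and 3.6 μM H3K27me3 peptide in pH 8.5 Tris with Brij-35 and BSA. Compounds, 80–0.16 μM in ten 2-fold steps, pre-incubated 20 min before a 60 min reaction. SAH/EDTA quench, streptavidin FlashPlate capture, scintillation count; IC50 from a 4-parameter fit.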

PRC2 containing wt EZH2 = molecular target: T1, PRC2 containing wt EZH2 (Homo sapiens, UniProt Q15910); assay: EZH2 pep BSA Brij 4.0 LowE (IC50): 3H-SAM incorporation into biotinylated H3 peptide; type: biochemical; conditions: read-out: EZH2 pep BSA Brij 4.0 LowE (IC50); 20 pM PRC2 wt EZH2, 0.9 μM 3H-SAM, biotinylated H3 peptide substrate, 2 μM H3K27me3 activating peptide
T1 construct: made in house
Method in brief: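 PRC2 (wt EZH2, 20 pM) pre-incubated 120 min with compound, 0.9 μM 3H-SAM and 2 μM H3K27me3 activating peptide in pH 8.5 Tris/DTT/Brij-35/0.1% BSA, 0.8% DMSO. Biotinylated H3K27me1 peptide added (2 μM stock), 5 h at room temperature, EDTA/SAH quench, streptavidin Flashplate capture. IC50 from four-parameter fit versus full-activity and no-enzyme controls.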

T1 sequence (Q15910 whole entry): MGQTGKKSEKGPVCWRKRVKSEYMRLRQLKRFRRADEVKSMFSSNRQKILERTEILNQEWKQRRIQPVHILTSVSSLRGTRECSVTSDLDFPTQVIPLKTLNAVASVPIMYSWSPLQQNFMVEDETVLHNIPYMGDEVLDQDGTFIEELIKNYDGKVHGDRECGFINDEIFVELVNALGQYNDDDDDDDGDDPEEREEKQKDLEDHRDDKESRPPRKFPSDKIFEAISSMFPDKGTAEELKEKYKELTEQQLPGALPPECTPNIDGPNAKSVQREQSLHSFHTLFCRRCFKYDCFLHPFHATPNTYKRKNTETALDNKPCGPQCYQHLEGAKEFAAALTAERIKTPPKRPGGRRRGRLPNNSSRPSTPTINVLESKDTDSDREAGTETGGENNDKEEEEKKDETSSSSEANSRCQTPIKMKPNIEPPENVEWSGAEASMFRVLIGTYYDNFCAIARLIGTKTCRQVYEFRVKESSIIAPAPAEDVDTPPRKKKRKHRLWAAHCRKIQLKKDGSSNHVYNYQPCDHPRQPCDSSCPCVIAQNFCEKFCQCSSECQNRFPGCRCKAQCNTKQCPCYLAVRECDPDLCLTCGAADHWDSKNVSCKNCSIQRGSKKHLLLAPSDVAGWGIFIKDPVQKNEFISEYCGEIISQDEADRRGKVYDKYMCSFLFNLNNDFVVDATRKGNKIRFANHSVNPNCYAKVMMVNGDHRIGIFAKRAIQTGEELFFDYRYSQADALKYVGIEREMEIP
T1 sequence (O75530 whole entry partner): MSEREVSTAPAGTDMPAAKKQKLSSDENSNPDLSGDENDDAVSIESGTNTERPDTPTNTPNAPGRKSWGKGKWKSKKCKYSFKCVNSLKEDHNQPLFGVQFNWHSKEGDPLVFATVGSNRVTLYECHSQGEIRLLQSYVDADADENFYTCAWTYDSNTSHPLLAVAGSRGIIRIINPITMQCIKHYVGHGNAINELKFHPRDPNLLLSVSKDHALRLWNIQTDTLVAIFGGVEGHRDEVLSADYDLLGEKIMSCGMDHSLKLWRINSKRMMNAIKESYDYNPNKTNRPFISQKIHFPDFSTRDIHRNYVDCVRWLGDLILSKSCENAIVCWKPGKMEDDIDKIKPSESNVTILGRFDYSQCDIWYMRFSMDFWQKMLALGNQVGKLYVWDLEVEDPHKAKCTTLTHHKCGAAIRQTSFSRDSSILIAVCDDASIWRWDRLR
T1 sequence (Q15022 whole entry partner): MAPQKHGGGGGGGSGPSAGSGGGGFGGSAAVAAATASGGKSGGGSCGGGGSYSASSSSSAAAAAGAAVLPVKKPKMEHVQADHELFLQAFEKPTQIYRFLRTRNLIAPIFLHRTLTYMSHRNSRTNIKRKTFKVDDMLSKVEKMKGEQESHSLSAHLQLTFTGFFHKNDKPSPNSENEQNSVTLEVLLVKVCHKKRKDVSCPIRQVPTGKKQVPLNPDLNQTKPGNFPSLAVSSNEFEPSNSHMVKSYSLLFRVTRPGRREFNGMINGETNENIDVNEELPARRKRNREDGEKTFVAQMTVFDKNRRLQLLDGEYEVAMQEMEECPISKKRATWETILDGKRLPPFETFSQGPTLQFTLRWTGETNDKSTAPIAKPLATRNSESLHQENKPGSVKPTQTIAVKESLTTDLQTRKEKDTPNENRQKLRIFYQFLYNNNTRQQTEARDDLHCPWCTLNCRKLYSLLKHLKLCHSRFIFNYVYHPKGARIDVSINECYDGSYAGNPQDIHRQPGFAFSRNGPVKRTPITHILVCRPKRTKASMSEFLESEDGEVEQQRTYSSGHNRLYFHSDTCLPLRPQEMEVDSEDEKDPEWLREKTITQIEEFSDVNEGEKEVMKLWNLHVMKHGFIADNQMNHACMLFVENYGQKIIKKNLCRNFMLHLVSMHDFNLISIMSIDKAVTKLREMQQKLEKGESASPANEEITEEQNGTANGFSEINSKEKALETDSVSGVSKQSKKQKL
T1 sequence (Q09028 whole entry partner): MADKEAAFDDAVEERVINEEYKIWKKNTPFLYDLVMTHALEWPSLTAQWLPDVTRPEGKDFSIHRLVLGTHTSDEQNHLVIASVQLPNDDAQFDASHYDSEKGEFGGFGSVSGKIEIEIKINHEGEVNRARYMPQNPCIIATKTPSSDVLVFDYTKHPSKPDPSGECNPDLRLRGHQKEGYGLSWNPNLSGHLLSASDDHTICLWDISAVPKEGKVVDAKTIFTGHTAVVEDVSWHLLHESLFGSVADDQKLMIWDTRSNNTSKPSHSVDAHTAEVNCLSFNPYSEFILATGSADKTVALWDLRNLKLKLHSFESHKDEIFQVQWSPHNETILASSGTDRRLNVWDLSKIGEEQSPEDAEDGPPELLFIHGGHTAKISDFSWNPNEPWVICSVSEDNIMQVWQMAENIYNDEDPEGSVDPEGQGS
T1 sequence (Q6ZN18 whole entry partner): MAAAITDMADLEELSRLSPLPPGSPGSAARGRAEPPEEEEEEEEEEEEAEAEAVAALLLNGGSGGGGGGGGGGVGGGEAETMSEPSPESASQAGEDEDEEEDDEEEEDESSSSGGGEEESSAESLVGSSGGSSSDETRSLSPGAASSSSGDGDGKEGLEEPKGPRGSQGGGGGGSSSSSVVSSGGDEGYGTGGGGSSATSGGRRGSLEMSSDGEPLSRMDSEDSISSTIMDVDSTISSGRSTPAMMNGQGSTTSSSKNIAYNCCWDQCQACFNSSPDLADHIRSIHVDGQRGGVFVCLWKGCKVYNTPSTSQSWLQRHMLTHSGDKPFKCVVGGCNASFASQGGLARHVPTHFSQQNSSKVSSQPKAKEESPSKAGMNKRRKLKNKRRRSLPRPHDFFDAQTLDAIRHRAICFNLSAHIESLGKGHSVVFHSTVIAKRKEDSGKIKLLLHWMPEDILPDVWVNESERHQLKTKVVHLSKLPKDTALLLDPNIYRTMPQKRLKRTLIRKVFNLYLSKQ
Sequence of EZH2 (Q15910 whole entry): as the sequence (Q15910 whole entry) above
Sequence of EZH2 (O75530 whole entry partner): as the sequence (O75530 whole entry partner) above
Sequence of EZH2 (Q15022 whole entry partner): as the sequence (Q15022 whole entry partner) above

## COc1cc(C)[nH]c(=O)c1CNC(=O)c1c(C)n(C(C)C2CCN(C)C(C(F)(F)F)C2)c2ccccc12 (single isomer, unassigned) [Compound 21, N-((4-methoxy-6-methyl-2-oxo-1,2-dihydropyridin-3-yl)methyl)-2-methyl-1-(1-(1-methyl-2-(trifluoromethyl)piperidin-4-yl)ethyl)-1H-indole-3-carboxamide]
EZH2
  IC50: < 100 nM
PRC2 containing wt EZH2
  IC50: < 100 nM
